Converted amounts (≈) assume the structure as drawn. Marks after values point to notes of the source that are not given here.
Experiments:
[1] = Weekly food intake of SHR rats; format: in vivo, rat
Experimental: (§1) 2.1 Grouping and administration of animals: 112 SHR rats (the female and male SHR rats are half and half, and the female rats are not pregnant) with the body weight of 200-250 g are taken, the rats are enabled to adapt to a laboratory for a period of 5 d, blood pressure is measured once at a day to enable the rats to adapt to the environment and detect stimulation. Then, weighing and numbering are carried out, and the SHR rats are equally divided into 14 groups randomly (each group comprises 8 rats), i.e., an SHR rat model control group, a positive control group (captopril, 27 mg/kg), a BZ large-dose group (120 mg/kg/d), a BZ small-dose group (60 mg/kg/d), a BA large-dose group (120 mg/kg/d), a BA small-dose group (60 mg/kg/d), a BL large-dose group (120 mg/kg/d), a BL small-dose group (60 mg/kg/d), a BM large-dose group (120 mg/kg/d), a BM small-dose group (60 mg/kg/d), a BD large-dose group (120 mg/kg/d), a BD small-dose group (60 mg/kg/d), a GB large-dose group (120 mg/kg/d) and a GB small-dose group (60 mg/kg/d). In addition, 8 healthy Wistar rats are taken as a normal control group. Intragastric administration is performed on the rats of each drug group separately according to the above-mentioned doses by 1 mL/100 g body weight, intragastric administration is performed on the rats of the normal control group and the rats of the SHR rat model control group with an equal volume of distilled water, and administration is performed continuously for 8 weeks.
(§2) 2.2 General state: during observation, conditions such as mind, water drinking, food intake, bowel movement, hair color, body weight and range of motion of rats are observed. Irritable degrees of the rats are divided into III levels: a level I means that the rats are free of obvious response when necks of the rats are seized; a level II means that the rats scream and startle when the necks of the rats are seized; and a level III means that the rats bite or rats of same cages frequently fight when the necks of the rats are seized.
(§3) 3.1 Influence on general state of spontaneously hypertensive rats: the rats of the normal control group are normal in food intake, drinking and motion conditions, sensitive in response, healthy and glossy in hair color, good in mental state and free of any unusual response; the rats of the SHR model group gradually present that back hair is fluffy, clustered and dim, the appetite is reduced, the body weight is reduced, the mind is dispirited and irritable, and the rats are prone to the behaviors of intense resisting, attacking and so on during administration and blood pressure detection, and irritable degrees are mostly changed to a level II and a level III from a level I; and after single administration of ginkgolide B and derivatives thereof, behavioral general state observations of rats of each group are free of obvious difference from those of the model control group.

[2] = Weekly body weight of SHR rats; format: in vivo, rat
Experimental: as §1, §2, §3

Water solubility test = details: purified water, thermodynamic from solid
Experimental: Measuring method: samples are ground to obtain fine powder, target compounds are quantitatively weighed, the weighed compounds are added into purified water, and the solubility of the compounds is investigated by ultrasonics.

[3] = test system: spontaneously hypertensive rats (SHR); test: Caudal artery systolic pressure of spontaneously hypertensive rats, single administration; format: in vivo, rat; details: x ± s, n = 8
Experimental: as §1
(§4) 2.3 Blood pressure measuring: caudal artery systolic pressure of rats is measured with a Bp-6 noninvasive blood pressure measuring system. Under the condition that the rats are calm, the systolic pressure is continuously measured for 3 times, and the average value of the measured systolic pressure is taken as a pressure measuring result. Observation indexes: (1) single-administration pressure lowering effect: blood pressure of the rats is measured before administration and blood pressure conditions are measured 30 min, 60 min, 90 min and 120 min after first administration; and (2) continuous-administration pressure lowering condition: blood pressure is separately measured 30 min after administration at 1 d, 7 d, 13 d, 19 d, 25 d, 35 d, 49 d and 56 d, the blood pressure is repeatedly measured for 3 times at a day, and the average value of obtained values is taken as a final blood pressure value.

[4] = test system: spontaneously hypertensive rats (SHR); test: Caudal artery systolic pressure of spontaneously hypertensive rats, 8 weeks of continuous medication; format: in vivo, rat; details: x ± s, n = 8
Experimental: as §1, §4

[5] = 60 mg/kg/d intragastric, week 0
[6] = 60 mg/kg/d intragastric, week 1
[7] = 60 mg/kg/d intragastric, week 2
[8] = 60 mg/kg/d intragastric, week 3
[9] = 60 mg/kg/d intragastric, week 4
[10] = 60 mg/kg/d intragastric, week 5
[11] = 60 mg/kg/d intragastric, week 6
[12] = 60 mg/kg/d intragastric, week 7
[13] = 60 mg/kg/d intragastric, week 8
[14] = 120 mg/kg/d intragastric, week 0
[15] = 120 mg/kg/d intragastric, week 1
[16] = 120 mg/kg/d intragastric, week 2
[17] = 120 mg/kg/d intragastric, week 3
[18] = 120 mg/kg/d intragastric, week 4
[19] = 120 mg/kg/d intragastric, week 5
[20] = 120 mg/kg/d intragastric, week 6
[21] = 120 mg/kg/d intragastric, week 7
[22] = 120 mg/kg/d intragastric, week 8

- solubility (Water solubility test): 0.22 mg/mL (≈ 375 µM)
Structure (SMILES): CC(=O)Oc1ccccc1C(=O)O[C@H]1C(=O)O[C@H]2O[C@]34C(=O)OC5C[C@@H](C(C)(C)C)C21[C@@]53[C@@H](O)[C@@H]1OC(=O)[C@@H](C)[C@@]14O (some centres unmarked) [BA]
- Average dairy food intake [1, 5]: 17.9 g/day
- Average dairy food intake [1, 6]: 18.6^▴ g/d
- Average dairy food intake [1, 7]: 19.8^▴ g/d
- Average dairy food intake [1, 8]: 19.6^▴ g/d
- Average dairy food intake [1, 9]: 18.9^▴ g/d
- Average dairy food intake [1, 10]: 20.7^▴▴ g/d
- Average dairy food intake [1, 11]: 22.3^▴▴ g/d
- Average dairy food intake [1, 12]: 24.6^▴▴ g/d
- Average dairy food intake [1, 13]: 25.5^▴▴ g/d
- Average dairy food intake [1, 14]: 18.1 g/day
- Average dairy food intake [1, 15]: 19.8^▴ g/d
- Average dairy food intake [1, 16]: 20.1^▴▴ g/d
- Average dairy food intake [1, 17]: 20.8^▴▴ g/d
- Average dairy food intake [1, 18]: 21.6^▴▴ g/d
- Average dairy food intake [1, 19]: 23.0^▴▴ g/d
- Average dairy food intake [1, 20]: 24.5^▴▴ g/d
- Average dairy food intake [1, 21]: 25.9^▴▴ g/d
- Average dairy food intake [1, 22]: 27.8^▴▴ g/d
- Body weight [2, 5]: 228.5 g
- Body weight [2, 6]: 233.6 g
- Body weight [2, 7]: 244.8^▴ g
- Body weight [2, 8]: 251.4 g
- Body weight [2, 9]: 257.3 g
- Body weight [2, 10]: 263.7^▴ g
- Body weight [2, 11]: 269.6^▴ g
- Body weight [2, 12]: 281.8^▴▴ g
- Body weight [2, 13]: 292.8^▴▴ g
- Body weight [2, 14]: 231.6 g
- Body weight [2, 15]: 251.4^▴▴ g
- Body weight [2, 16]: 257.6^▴▴ g
- Body weight [2, 17]: 264.1^▴▴ g
- Body weight [2, 18]: 271.2^▴▴ g
- Body weight [2, 19]: 280.6^▴▴ g
- Body weight [2, 20]: 291.2^▴▴ g
- Body weight [2, 21]: 305.9^▴▴ g
- Body weight [2, 22]: 320.4^▴▴ g
- Systolic pressure ([3]; 60 mg/kg intragastric single administration, 30 min): 161.36 ± 9.52 mmHg
- Systolic pressure ([3]; 60 mg/kg intragastric single administration, 60 min): 159.62 ± 14.25 mmHg
- Systolic pressure ([3]; 60 mg/kg intragastric single administration, 90 min): 152.56 ± 11.26 mmHg
- Systolic pressure ([3]; 60 mg/kg intragastric single administration, 120 min): 159.87 ± 11.32 mmHg
- Systolic pressure ([3]; 60 mg/kg intragastric single administration, before administration): 165.35 ± 11.62 mmHg
- Systolic pressure ([3]; 120 mg/kg intragastric single administration, 30 min): 149.69 ± 11.62 mmHg
- Systolic pressure ([3]; 120 mg/kg intragastric single administration, 60 min): 155.68 ± 17.35 mmHg
- Systolic pressure ([3]; 120 mg/kg intragastric single administration, 90 min): 161.30 ± 15.64 mmHg
- Systolic pressure ([3]; 120 mg/kg intragastric single administration, 120 min): 158.25 ± 15.61 mmHg
- Systolic pressure ([3]; 120 mg/kg intragastric single administration, before administration): 163.64 ± 10.31 mmHg
- Systolic pressure ([4]; 60 mg/kg/d intragastric continuous, 1 d, 30 min after administration): 155.29 ± 10.98 mmHg
- Systolic pressure ([4]; 60 mg/kg/d intragastric continuous, 7 d, 30 min after administration): 158.73 ± 13.82 mmHg
- Systolic pressure ([4]; 60 mg/kg/d intragastric continuous, 13 d, 30 min after administration): 153.64 ± 9.75 mmHg
- Systolic pressure ([4]; 60 mg/kg/d intragastric continuous, 19 d, 30 min after administration): 154.85 ± 9.74 mmHg
- Systolic pressure ([4]; 60 mg/kg/d intragastric continuous, 25 d, 30 min after administration): 151.36 ± 10.58 mmHg
- Systolic pressure ([4]; 60 mg/kg/d intragastric continuous, 35 d, 30 min after administration): 153.72 ± 13.68 mmHg
- Systolic pressure ([4]; 60 mg/kg/d intragastric continuous, 49 d, 30 min after administration): 151.70 ± 13.10 mmHg
- Systolic pressure ([4]; 60 mg/kg/d intragastric continuous, 56 d, 30 min after administration): 153.72 ± 12.54 mmHg
- Systolic pressure ([4]; 60 mg/kg/d intragastric continuous, before administration): 165.35 ± 11.62 mmHg
- Systolic pressure ([4]; 120 mg/kg/d intragastric continuous, 1 d, 30 min after administration): 151.48 ± 9.85 mmHg
- Systolic pressure ([4]; 120 mg/kg/d intragastric continuous, 7 d, 30 min after administration): 150.95 ± 9.68 mmHg
- Systolic pressure ([4]; 120 mg/kg/d intragastric continuous, 13 d, 30 min after administration): 145.30 ± 11.62 mmHg
- Systolic pressure ([4]; 120 mg/kg/d intragastric continuous, 19 d, 30 min after administration): 142.39 ± 12.49 mmHg
- Systolic pressure ([4]; 120 mg/kg/d intragastric continuous, 25 d, 30 min after administration): 145.84 ± 11.46 mmHg
- Systolic pressure ([4]; 120 mg/kg/d intragastric continuous, 35 d, 30 min after administration): 143.67 ± 115.62 mmHg
- Systolic pressure ([4]; 120 mg/kg/d intragastric continuous, 49 d, 30 min after administration): 140.69 ± 14.72 mmHg
- Systolic pressure ([4]; 120 mg/kg/d intragastric continuous, 56 d, 30 min after administration): 139.88 ± 13.04 mmHg
- Systolic pressure ([4]; 120 mg/kg/d intragastric continuous, before administration): 163.64 ± 10.31 mmHg
